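Test compounds were applied to cells in 96-well plates for 48 hours at 5 doses. Abbreviation: GI50, concentration required for 50% inhibition of growth.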 Calls of active or inactive are those of the source. Cut-off read from the data, not from the text of the source: active = GI50 up to about 1.1 µM and inactive = higher.

Some test systems named below: HL-60; CCRF-CEM; HT-29; HCT-116; BT-549; UACC-257; LOX IMVI; HCC 2998; A498; CAKI-1; SNB-75; HOP-92; SNB-19; OVCAR-8; Hs-578T; UACC-62; MDA-N; T47D; K562; NCI-H522.
Holding throughout (assay): inhibition of tumour cell growth, NCI panel, 48 h

Regarding `CC1(c2cccs2)CC(c2cccs2)=C(C#N)C(=C(C#N)C#N)N1` (centres undefined), the GI50 in the test on HL-60 was 10.1 µM (inactive); with CCRF-CEM, 0.519 µM (active); in the test on HT-29 it was 17.9 µM (inactive); in the test with HCT-116 it was 17.3 µM (inactive); with BT-549, 21.5 µM (inactive); in the test with UACC-257, 17.6 µM (inactive). Moreover, the GI50 was 16.1 µM (inactive) in the test with LOX IMVI; 15.9 µM (inactive) in the test with HCC 2998; 18.7 µM (inactive) with A498; 19.7 µM (inactive) in the test on CAKI-1; 18.8 µM (inactive) in the test on SNB-75; 14.8 µM (inactive) in the test with HOP-92. For the same molecule, the GI50 in the test on SNB-19 is 18.7 µM (inactive); in the test on OVCAR-8, 17.3 µM (inactive); with Hs-578T, 30.9 µM (inactive); in the test on UACC-62, 15 µM (inactive); in the test on MDA-N it was 16.7 µM (inactive); in the test on T47D, 16.6 µM (inactive). In addition, the GI50 in the test on K562 is 23 µM (inactive).

For the molecule `O=c1[nH]c2cccc([N+](=O)[O-])c2c(=O)n1-c1ccc(Cl)cc1`, the GI50 in the test with HL-60 was 11.7 µM (inactive); with CCRF-CEM, 17.4 µM (inactive); with HT-29 it was 7.03 µM (inactive); in the test on HCT-116, 17.9 µM (inactive); in the test on BT-549, 10.7 µM (inactive); in the test on UACC-257 it was 11.5 µM (inactive). For the same molecule, the GI50 in the test on LOX IMVI is 16.1 µM (inactive); with HCC 2998, 14 µM (inactive); with A498, 13.9 µM (inactive); in the test with CAKI-1 it was 2.64 µM (inactive); in the test on HOP-92, 18.5 µM (inactive); in the test on SNB-19 it was 20 µM (inactive). For the same molecule, the GI50 is 11.8 µM (inactive) in the test with OVCAR-8; 17 µM (inactive) with Hs-578T; 5.3 µM (inactive) in the test on UACC-62; 11.3 µM (inactive) with MDA-N; 11 µM (inactive) with T47D; 1.48 µM (inactive) in the test on K562.

With `COC(=O)[C@]12CSC[C@H]1C[C@H](c1ccc(N(C)C)cc1)N2`, the GI50 with HCT-116 is > 100 µM (inactive); in the test on BT-549, > 100 µM (inactive); in the test on UACC-257 it was > 100 µM (inactive); in the test with LOX IMVI it was > 100 µM (inactive); with HCC 2998, > 100 µM (inactive); with A498, > 28.1 µM (inactive). Moreover, the GI50 with CAKI-1, in the test on SNB-75, in the test on HOP-92, with SNB-19, in the test with OVCAR-8 and with Hs-578T was > 100 µM (inactive) throughout. Further, the GI50 is > 100 µM (inactive) in the test with UACC-62, > 62.2 µM (inactive) in the test with MDA-N, > 100 µM (inactive) in the test with T47D and > 100 µM (inactive) with K562.

As to `CCn1c(SCC(=O)NNC(=S)NC)nc2ccccc2c1=O`, the GI50 with HL-60 is > 100 µM (inactive); with CCRF-CEM, > 100 µM (inactive); in the test on HCT-116, > 100 µM (inactive); in the test on BT-549 it was 68.1 µM (inactive); in the test on UACC-257, > 100 µM (inactive); in the test with LOX IMVI, > 100 µM (inactive). The GI50 with HCC 2998 was > 100 µM (inactive); in the test on A498 it was 69 µM (inactive); in the test on CAKI-1 it was 24.1 µM (inactive); with SNB-75, > 100 µM (inactive); with SNB-19 it was > 100 µM (inactive); with OVCAR-8, > 100 µM (inactive). Moreover, the GI50 in the test with Hs-578T, with UACC-62, in the test with MDA-N, with T47D, in the test on K562 and in the test on NCI-H522 was > 100 µM (inactive) throughout.

With `O=C(O)CCC(=O)c1ccc2sc3ccccc3c2c1`, the GI50 with HL-60 was 15.8 µM (inactive); in the test with CCRF-CEM, 0.225 µM (active); with HT-29, > 100 µM (inactive); in the test on HCT-116 it was > 100 µM (inactive); in the test with BT-549 it was > 100 µM (inactive); in the test on UACC-257, > 100 µM (inactive). In addition, the GI50 was > 100 µM (inactive) in the test on LOX IMVI; 27.9 µM (inactive) with A498; > 100 µM (inactive) in the test on CAKI-1; > 100 µM (inactive) in the test with SNB-75; > 100 µM (inactive) with SNB-19; > 100 µM (inactive) in the test on OVCAR-8. Moreover, the GI50 with Hs-578T, with UACC-62, with MDA-N, with T47D, with K562 and in the test on NCI-H522 was > 100 µM (inactive) each time.

Regarding `CC1(C)Oc2ccc(Cl)cc2C12CC2`, the GI50 in the test on HL-60 was 18.5 µM (inactive); in the test on CCRF-CEM it was 22.7 µM (inactive); with HT-29, 17.6 µM (inactive); in the test with HCT-116, 14.7 µM (inactive); with BT-549, 21.1 µM (inactive); in the test on UACC-257 it was 15.1 µM (inactive). In addition, the GI50 is 16.6 µM (inactive) in the test on LOX IMVI; 15.8 µM (inactive) in the test on HCC 2998; 15.1 µM (inactive) in the test with A498; 15.6 µM (inactive) with CAKI-1; 16.8 µM (inactive) with SNB-75; 16.5 µM (inactive) in the test on SNB-19. Further, the GI50 in the test with OVCAR-8 was 14.7 µM (inactive); in the test with Hs-578T, 24.4 µM (inactive); with UACC-62, 40.5 µM (inactive); with MDA-N it was 17.8 µM (inactive); with T47D, 22.6 µM (inactive); in the test on K562, 15.5 µM (inactive).

For `C1=CC(=[N+]2N=C(c3ccccc3)CC2c2ccccc2)C=CC1=C1SC(c2ccccc2)(c2ccccc2)c2ccccc21.[O-][Cl+3]([O-])([O-])[O-]` (centres undefined), the GI50 in the test on HL-60 was > 100 µM (inactive); in the test with CCRF-CEM it was > 100 µM (inactive); with HT-29 it was > 100 µM (inactive); in the test with HCT-116 it was 93.5 µM (inactive); with BT-549 it was 78.5 µM (inactive); in the test on HCC 2998, > 100 µM (inactive). Also, the GI50 in the test with A498 was > 100 µM (inactive); in the test on HOP-92 it was 82 µM (inactive); with SNB-19, 79.4 µM (inactive); in the test with OVCAR-8, > 100 µM (inactive); in the test on Hs-578T it was > 100 µM (inactive); in the test with UACC-62 it was > 100 µM (inactive). Also, the GI50 in the test with MDA-N, in the test on T47D and in the test on K562 was > 100 µM (inactive) each time.

As for `CC(C)(C)n1[nH]c(=O)n(C(C)(C)C)c1=O`, the GI50 was > 100 µM (inactive) in the test on HL-60; > 10 µM (inactive) in the test with CCRF-CEM; > 100 µM (inactive) in the test on HCT-116; > 100 µM (inactive) with BT-549; > 100 µM (inactive) with UACC-257; > 100 µM (inactive) in the test on LOX IMVI. Besides, the GI50 in the test on HCC 2998, in the test on A498, in the test on CAKI-1, in the test with SNB-75, in the test with HOP-92 and in the test with SNB-19 was > 100 µM (inactive) in each case. Further, the GI50 in the test on Hs-578T, with UACC-62, in the test with MDA-N, in the test on T47D and in the test on K562 was > 100 µM (inactive) in each case.

As for `CN(C)S(=O)(=O)c1nc(Cl)c2nc[nH]c2n1`, the GI50 with HL-60 is 98.6 µM (inactive); with CCRF-CEM it was > 100 µM (inactive); with HT-29, > 100 µM (inactive); with HCT-116 it was > 100 µM (inactive); with BT-549, > 100 µM (inactive); in the test on UACC-257 it was > 100 µM (inactive). Besides, the GI50 is > 100 µM (inactive) in the test with LOX IMVI; > 100 µM (inactive) with HCC 2998; > 100 µM (inactive) in the test with A498; > 100 µM (inactive) in the test on CAKI-1; 36.9 µM (inactive) in the test with SNB-75; > 100 µM (inactive) with SNB-19. Also, the GI50 with OVCAR-8, in the test with Hs-578T, with UACC-62, in the test on MDA-N, with T47D and in the test with K562 was > 100 µM (inactive) each time. Moreover, the GI50 in the test with NCI-H522 is > 100 µM (inactive).

`CCCC(=O)OC1CC(n2cc(F)c(=O)[nH]c2=O)OC1CO` (centres undefined): the GI50 is 0.646 µM (active) with HL-60; 0.0355 µM (active) in the test on CCRF-CEM; 1.29 µM (inactive) in the test with HT-29; 0.731 µM (active) with HCT-116; 0.726 µM (active) in the test on BT-549; > 4.49 µM (inactive) in the test on UACC-257. The GI50 in the test on LOX IMVI is 0.0149 µM (active); in the test on HCC 2998, 0.0202 µM (active); in the test with A498, 2.07 µM (inactive); in the test on CAKI-1, 0.141 µM (active); with SNB-75 it was 1.53 µM (inactive); in the test with OVCAR-8, 0.171 µM (active). For the same molecule, the GI50 is > 3.19 µM (inactive) in the test on Hs-578T; 0.0863 µM (active) in the test with UACC-62; 1.63 µM (inactive) in the test on MDA-N; > 10 µM (inactive) in the test on T47D; 1.74 µM (inactive) with K562; 6.34 µM (inactive) in the test with NCI-H522.

Regarding `CC(C)C1=CC(=O)C(C)(C2C(O)CC3(C)C4CC=C5C(CCC(OC6OC(CO)C(O)C(O)C6OC6OC(C)C(O)C(O)C6O)C5(C)C)C4(C)C(=O)CC23C)O1` (centres undefined), the GI50 with CCRF-CEM, in the test on HT-29, in the test on HCT-116, in the test on BT-549, in the test with UACC-257 and with HCC 2998 was > 100 µM (inactive) in each case. In addition, the GI50 in the test with A498, in the test on CAKI-1, with SNB-75, with HOP-92, with SNB-19 and with OVCAR-8 was > 100 µM (inactive) throughout. The GI50 with Hs-578T, with UACC-62, in the test on MDA-N, with T47D, in the test with K562 and in the test with NCI-H522 was > 100 µM (inactive) throughout.

Values taken from ChEMBL document CHEMBL1201862, “PubChem BioAssay data set” (2004).
